The results in this text go back to ChEMBL document CHEMBL4613225, “Preparation and biological evaluation of BACE1 inhibitors: Leveraging trans-cyclopropyl moieties as ligand efficient conformational constraints” (Bioorg Med Chem, 2020).

Series [1] in a line: Drug level in PDAPP V717F transgenic mouse brain at 30 mg/kg, sc. It is filed as ADME, organism-based. As to conditions: in vivo, read-out: Ct.
A short description of series [2]: Metabolic stability in human pooled liver microsomes assessed as metabolized drug level after 30 mins in presence of NADPH by LC-MS/MS analysis. Type of series: ADME, Microsome. As to conditions: read-out: Drug metabolism.
Series [3] in a line: Metabolic stability in rat liver microsomes assessed as metabolized drug level after 30 mins in presence of NADPH by LC-MS/MS analysis. It is filed as ADME, Microsome. As to conditions: read-out: Drug metabolism.
Series [4] is described as follows: Drug level in PDAPP V717F transgenic mouse plasma assessed as unbound fraction at 10 mg/kg, sc. Type of series: ADME, organism-based. As to conditions: in vivo.
A short description of series [5]: Drug level in PDAPP V717F transgenic mouse plasma at 30 mg/kg, sc. Type of series: ADME, organism-based. As to conditions: in vivo.
The nature of series [6]: Permeability in MDCK-MDR1 cells at 5 uM after 1 hr by LC-MS/MS analysis. As to conditions: dog, read-out: permeability. It is filed as ADME, cell-based, Canis lupus familiaris.
A short description of series [7]: Ratio of unbound fraction in PDAPP V717F transgenic mouse brain to plasma at 30 mg/kg, sc. As to conditions: read-out: K(p,uu,brain). It is filed as ADME, organism-based.
Series [8] is described as follows: Metabolic stability in dog liver microsomes assessed as metabolized drug level after 30 mins in presence of NADPH by LC-MS/MS analysis. As to conditions: read-out: Drug metabolism. Type of series: ADME, Canis lupus familiaris, Microsome.
The nature of series [9]: Ratio of unbound fraction in PDAPP V717F transgenic mouse brain to plasma at 100 mg/kg, sc. It is filed as ADME, organism-based. As to conditions: read-out: K(p,uu,brain).
Series [10] in a line: Ratio of unbound fraction in PDAPP V717F transgenic mouse brain to plasma at 10 mg/kg, sc. Type of series: ADME, organism-based. As to conditions: read-out: K(p,uu,brain).
Series [11] is described as follows: Metabolic stability in mouse liver microsomes assessed as metabolized drug level after 30 mins in presence of NADPH by LC-MS/MS analysis. Type of series: ADME, Microsome. As to conditions: read-out: Drug metabolism.
A short description of series [12]: Drug level in PDAPP V717F transgenic mouse plasma assessed as unbound fraction at 30 mg/kg, sc. As to conditions: in vivo. It is filed as ADME, organism-based.
Series [13] can be described thus: Drug level in PDAPP V717F transgenic mouse plasma assessed as unbound fraction at 100 mg/kg, sc. Type of series: ADME, organism-based. As to conditions: in vivo.
A short description of series [14]: Drug level in PDAPP V717F transgenic mouse plasma at 100 mg/kg, sc. Type of series: ADME, organism-based. As to conditions: in vivo.
The nature of series [15]: Drug level in PDAPP V717F transgenic mouse plasma at 10 mg/kg, sc. As to conditions: in vivo. Type of series: ADME, organism-based.
A short description of series [16]: Drug level in PDAPP V717F transgenic mouse brain at 100 mg/kg, sc. Type of series: ADME, organism-based. As to conditions: in vivo, read-out: Ct.
The nature of series [17]: Drug level in PDAPP V717F transgenic mouse brain at 10 mg/kg, sc. It is filed as ADME, organism-based. As to conditions: in vivo, read-out: Ct.

With `C[C@@H]1C[C@H]1COC(C)(C)[C@@H]1C[C@H]1[C@]12CN(c3ncccn3)C[C@H]1CSC(N)=N2`, the concentration was 176 nM in [1]; 326 nM in [5]; 815 nM in series [14]; 133 nM in [15]; 389 nM in [16]; 63 nM in series [17]. Also, the metabolised at 0.5 h in [2] amounted to 31%; in [3], 98%; in series [8], 79%; in series [11], 98%. The “Cp(f)” value in [4] is recorded as 17 nM; in series [12] it was 41 nM; in series [13] it was 102 nM. Besides, in series [6], the Papp at 1 h, 5 µM is 36 ×10⁻⁶ cm/s. Moreover, the Kp uu in series [7] stood at 0.17; in series [9] it was 0.16; in series [10] it was 0.18.

As for `C[C@@H]1C[C@H]1CNC(=O)[C@@H]1C[C@H]1[C@]12CN(c3ncccn3)C[C@H]1CSC(N)=N2`, the metabolised at 0.5 h in series [2] stood at 13%; in series [3], 55%; in series [8] it was 28%; in [11], 33%. The Papp at 1 h, 5 µM in series [6] worked out at 8 ×10⁻⁶ cm/s.
